# From patent US20230126204A1, “[1,3]DIAZINO[5,4-d]PYRIMIDINES AS HER2 INHIBITORS” (Boehringer Ingelheim International GmbH, priority 2020, published 2023)
# Where two headings read alike, the source gives them in different places.
# Columns and labels:
# Type in all cases: cell-based
# EGFR wild type (WT) = biological target: T1, EGFR wild type (WT) (Homo sapiens, UniProt P00533); test: pEGFR assay (AlphaScreen Surefire, HEK cells); details: HEK cells expressing EGFR WT, phosphorylation at Tyr1068, 4 h
# T1 construct: expressed in transfected cells; host or cells: human HEK cells (ATCC CRL-1573), retroviral transduction, puromycin selection
# Method: This assay quantifies the phosphorylation of EGFR at Tyr1068 and was used to measure the inhibitory effect of compounds on the transgenic EGFR wild type (WT) protein expressed in HEK cells.
# Transduced cells were selected using puromycin. p-EGFR Tyr1068 was determined using the AlphaScreen Surefire pEGF Receptor (Tyr1068) Assay (PerkinElmer, TGRERS). For the assay, HEK EGFR WT cells were seeded in MEM medium with 10% FBS. […] Subsequently, 60.000 cells/well in 60 μL were added. Cells were incubated with compounds for 4 h at 37° C. […] The mixture was incubated at a temperature of 20-25° C. with shaking (700 rpm) for 20 min. After centrifugation, 4 μL of the lysate were transferred to Proxiplates. […] Plates were shaken for 1 min (1400 rpm) and incubated for 2 h at a temperature of 20-25° C. in the dark.
# This cellular phospho-EGFR (pEGFR) compound dose-response assay quantifies the phosphorylation of EGFR at Tyr1068 in HEK cells expressing EGFR WT. The results of the assay are provided as IC50 values.
# [1] = system: NCI-H2170 (HER2 wild type) cells; test: Tumor cell proliferation assay NCI-H2170 (HER2 wild type); details: Homo sapiens, 72 h, CellTiter-Glo, read-out: GI50 NCI H-2170 HER2 wt amp.
# Method: (§1) For proliferation assays, NCI-H2170 (HER2 wild type), NCI-H2170 HER2 YVMA and EGFR WT dependent A431 cells were used. NCI-H2170 HER2 YVMA or NCI-H2170 cells were seeded into 96-well plates at 750 cells/60 μL in growth media (RPMI ATCC+10% FBS, +Penicillin/Streptomycin). […] Compounds were added by using a HP D3000 Digital Dispenser one day after plating the cells. All treatments were performed in technical triplicates. Treated cells were incubated for 72 h at 37° C. with 5% CO2. CellTiter-Glo® Luminescent Cell Viability Assay (Promega) was performed and chemoluminescence was measured by using the multilabel Plate Reader VICTOR X4. The raw data were imported into and analyzed with the Boehringer Ingelheim proprietary software MegaLab (curve fitting based on the program PRISM, GraphPad Inc.).
# [2] = system: Ba/F3 cells HER2 mutants (YVMA); test: Ba/F3 proliferation assay HER2 YVMA; details: Mus musculus, BaF3, 72 h, CellTiter-Glo
# Method: (§2) Ba/F3 cell model generation and proliferation assays
# (§3) Plasmids containing HER2 mutants and EGFR WT were obtained from GeneScript. To generate EGFR/HER2-dependent Ba/F3 models, Ba/F3 cells were transduced with retroviruses containing vectors that harbor EGFR WT, HER2 WT or HER2 mutants (YVMA). Platinum-E cells (Cell Biolabs) were used for retrovirus packaging. Retrovirus was added to Ba/F3 cells. To ensure infection, 4 μg/mL polybrene was added and cells were spinfected. Infection efficiency was confirmed by measuring GFP-positive cells using a cell analyzer. Cells with an infection efficiency of 10% to 20% were further cultivated and puromycin selection with 1 μg/mL was initiated. As a control, parental Ba/F3 cells were used to assess the selection status. Selection was considered successful when parental Ba/F3 cells cultures died. To evaluate the transforming potential of HER2 mutations, the growth medium was no longer supplemented with IL-3. Ba/F3 cells harboring the empty vector were used as a control. A switch from IL-3 to EGF was performed for Ba/F3 cells with the EGFR WT known for its dependency on EGF ligand. Approximately ten days before conducting the experiments, puromycin was left out. For proliferation assays (data in table 12 and 14), Ba/F3 cells were seeded into 96-well plates at 5×10^3 cells/100 μL in growth media. Compounds were added by using a HP D3000 Digital Dispenser. All treatments were performed in technical triplicates. Treated cells were incubated for 72 h at 37° C. with 5% CO2. CellTiter-Glo® Luminescent Cell Viability Assay (Promega) was performed and chemoluminescence was measured by using the multilabel Plate Reader VICTOR X4. The raw data were imported into and analyzed with the Boehringer Ingelheim proprietary software MegaLab (curve fitting based on the program PRISM, GraphPad Inc.).
# [3] = system: NCI-H2170 HER2 YVMA cells; test: Tumor cell proliferation assay NCI-H2170 HER2 YVMA; details: Homo sapiens, 72 h, CellTiter-Glo, read-out: GI50 NCI H-2170 HER2 YVMA
# Text: HER2 YVMA tumor cell line model generation and proliferation assays
# Homology-directed genome engineering was employed to insert a 12 nucleotide sequence encoding YVMA into Exon 20 of the genomic HER2 locus in NCI-H2170 cells. […] The DNA template containing the HER2 exon 20 YVMA insertion variant was obtained from GenScript. PCR followed by Sanger sequencing was used to confirm the presence of the 12-nucleotide insertion in HER2 Exon 20 resulting in the YVMA amino acid duplication.
# as §1
# Ba/F3 cells HER2 WT = test: Ba/F3 proliferation assay HER2 WT; details: Mus musculus, BaF3, 72 h, CellTiter-Glo
# Method: as §2, §3
# Ba/F3 cells EGFR WT = test: Ba/F3 proliferation assay EGFR WT (EGF dependent); details: Mus musculus, CellTiter-Glo, read-out: GI50 BAF3 EGF dep.
# Method: as §2, §3
# HER2 YVMA = biological target: T2, HER2 YVMA (Homo sapiens, UniProt P04626, INS775YVMA); test: pHER2 (ERBB2) YVMA assay (AlphaScreen Surefire, HEK cells); details: HEK cells expressing HER2 YVMA, phosphorylation at Tyr1221/1222, 4 h
# T2 construct: expressed in transfected cells; host or cells: human HEK cells, retroviral transduction, puromycin selection, doxycycline-inducible expression
# Method: For the assay, HEK HER2 YVMA cells were seeded in MEM medium with 10% FBS. 4 hours prior to compound addition, HER2 YVMA expression was induced using 1 μg/ml Doxycycline. […] Subsequently, 60.000 cells/well in 60 μL were added. Cells were incubated with compounds for 4 h at 37° C. […] The mixture was incubated at a temperature of 20-25° C. with shaking (700 rpm) for 20 min. After centrifugation, 4 μL of the lysate were transferred to Proxiplates. […] Plates were shaken for 1 min (1400 rpm) and incubated for 2 h at a temperature of 20-25° C. in the dark.
# The results of the assay are provided as IC50 values.
# [4] = system: EGFR WT dependent A431 cells; test: Tumor cell proliferation assay A431 (EGFR WT dependent); details: Homo sapiens, A-431, 72 h, CellTiter-Glo, read-out: GI50 A431 EGFR wt amp.
# Method: as §1
# [5] = BaF3, EGF instead of IL-3, 72 h
# [6] = BaF3, prior art compounds, EGF instead of IL-3, 72 h
# T1 sequence (P00533 25-1210): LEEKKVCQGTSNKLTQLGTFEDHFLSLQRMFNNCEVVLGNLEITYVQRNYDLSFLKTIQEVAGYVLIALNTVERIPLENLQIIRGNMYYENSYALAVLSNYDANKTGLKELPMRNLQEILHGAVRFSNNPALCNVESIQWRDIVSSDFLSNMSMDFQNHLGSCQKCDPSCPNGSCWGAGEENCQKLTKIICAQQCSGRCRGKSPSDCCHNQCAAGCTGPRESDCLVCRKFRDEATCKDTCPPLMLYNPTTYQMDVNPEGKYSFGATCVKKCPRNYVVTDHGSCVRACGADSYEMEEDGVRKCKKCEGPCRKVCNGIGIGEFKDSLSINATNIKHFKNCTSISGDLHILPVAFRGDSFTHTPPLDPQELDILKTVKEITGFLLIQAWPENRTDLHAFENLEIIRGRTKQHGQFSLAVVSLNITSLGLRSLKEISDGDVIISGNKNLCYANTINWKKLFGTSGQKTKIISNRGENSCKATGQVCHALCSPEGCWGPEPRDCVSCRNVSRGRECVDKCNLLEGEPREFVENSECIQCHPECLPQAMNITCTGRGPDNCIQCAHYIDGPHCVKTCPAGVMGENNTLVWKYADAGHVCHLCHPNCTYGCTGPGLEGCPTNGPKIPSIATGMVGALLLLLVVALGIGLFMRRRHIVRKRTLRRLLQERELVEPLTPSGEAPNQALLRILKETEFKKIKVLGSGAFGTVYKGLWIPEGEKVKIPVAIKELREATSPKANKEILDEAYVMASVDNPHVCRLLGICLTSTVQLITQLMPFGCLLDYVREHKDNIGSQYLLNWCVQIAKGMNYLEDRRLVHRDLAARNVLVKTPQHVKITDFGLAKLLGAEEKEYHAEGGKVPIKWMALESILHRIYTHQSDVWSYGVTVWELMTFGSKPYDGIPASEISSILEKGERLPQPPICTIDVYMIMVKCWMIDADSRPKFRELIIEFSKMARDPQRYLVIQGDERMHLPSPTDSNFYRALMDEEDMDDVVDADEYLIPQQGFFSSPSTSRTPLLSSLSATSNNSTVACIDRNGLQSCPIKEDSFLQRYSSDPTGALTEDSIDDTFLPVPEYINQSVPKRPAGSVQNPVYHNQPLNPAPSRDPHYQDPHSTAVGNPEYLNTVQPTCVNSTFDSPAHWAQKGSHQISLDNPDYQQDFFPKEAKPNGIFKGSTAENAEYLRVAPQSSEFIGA
# T2 sequence (P04626 with tags, fused parts or gaps INS775YVMA): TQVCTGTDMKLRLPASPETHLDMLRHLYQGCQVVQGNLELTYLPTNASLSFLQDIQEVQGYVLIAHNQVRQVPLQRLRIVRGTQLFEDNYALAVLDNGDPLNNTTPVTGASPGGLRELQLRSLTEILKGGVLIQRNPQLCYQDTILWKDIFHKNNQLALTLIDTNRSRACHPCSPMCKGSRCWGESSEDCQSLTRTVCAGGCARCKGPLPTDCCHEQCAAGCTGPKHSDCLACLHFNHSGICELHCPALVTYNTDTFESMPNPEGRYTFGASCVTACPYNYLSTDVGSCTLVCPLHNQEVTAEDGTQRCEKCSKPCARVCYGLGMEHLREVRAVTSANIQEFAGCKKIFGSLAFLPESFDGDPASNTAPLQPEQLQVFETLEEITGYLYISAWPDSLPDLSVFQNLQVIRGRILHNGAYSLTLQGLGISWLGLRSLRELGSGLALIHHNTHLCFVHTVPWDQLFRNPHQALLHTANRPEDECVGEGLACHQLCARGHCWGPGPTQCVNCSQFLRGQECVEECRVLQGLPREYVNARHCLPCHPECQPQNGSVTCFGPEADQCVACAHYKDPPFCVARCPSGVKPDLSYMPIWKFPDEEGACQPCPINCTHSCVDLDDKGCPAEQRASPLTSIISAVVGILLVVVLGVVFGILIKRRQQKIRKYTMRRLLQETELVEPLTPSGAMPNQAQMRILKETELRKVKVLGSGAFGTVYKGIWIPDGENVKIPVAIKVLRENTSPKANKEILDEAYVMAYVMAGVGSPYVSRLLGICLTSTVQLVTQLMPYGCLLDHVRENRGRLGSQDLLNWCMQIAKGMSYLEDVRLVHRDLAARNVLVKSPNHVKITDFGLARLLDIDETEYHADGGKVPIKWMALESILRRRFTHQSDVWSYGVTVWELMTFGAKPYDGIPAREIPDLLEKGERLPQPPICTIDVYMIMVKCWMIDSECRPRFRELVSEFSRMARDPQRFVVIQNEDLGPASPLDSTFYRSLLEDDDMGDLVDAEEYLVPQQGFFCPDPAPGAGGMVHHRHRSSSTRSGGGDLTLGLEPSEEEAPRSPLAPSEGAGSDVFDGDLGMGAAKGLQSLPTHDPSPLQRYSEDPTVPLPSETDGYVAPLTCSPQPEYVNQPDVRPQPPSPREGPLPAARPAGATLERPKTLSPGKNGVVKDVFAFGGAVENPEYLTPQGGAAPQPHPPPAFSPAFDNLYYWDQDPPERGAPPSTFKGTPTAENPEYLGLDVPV
SMILES,IC50 (EGFR wild type (WT)),GI50 [1],GI50 [2],GI50 [3],GI50 (Ba/F3 cells HER2 WT),GI50 (Ba/F3 cells EGFR WT; [5]),IC50 (HER2 YVMA),GI50 [4],GI50 ([1]; prior art compounds),GI50 (Ba/F3 cells HER2 WT; prior art compounds),GI50 ([2]; prior art compounds),GI50 ([3]; prior art compounds),GI50 (Ba/F3 cells EGFR WT; [6]),GI50 ([4]; prior art compounds)
C=CC(=O)N1CCN(c2ncc3ncnc(Nc4ccc(Oc5ccc6c(c5)ncn6C)cc4F)c3n2)CC1 [Compound I-12],873 nM,45 nM,48 nM,167 nM,7 nM,1180 nM,27 nM,4810 nM,–,–,–,–,–,–
C=CC(=O)N1CCN(c2ncc3ncnc(Nc4cc(Br)c(Oc5ccc6c(c5)ncn6C)c(Br)c4)c3n2)CC1 [Compound I-9],485 nM,46 nM,23 nM,203 nM,5 nM,1120 nM,34 nM,2510 nM,–,–,–,–,–,–
C=CC(=O)N1CCN(c2ncc3ncnc(Nc4ccc(Oc5ccc6c(c5)ncn6C)c(F)c4)c3n2)CC1 [Compound I-6],1110 nM,26 nM,27 nM,146 nM,3 nM,1840 nM,19 nM,2640 nM,–,–,–,–,–,–
"Cc1cc(Nc2ncnc3ccc(NC4=NC(C)(C)CO4)cc23)ccc1Oc1ccn2ncnc2c1 [tucatinib, reference compound]",–,–,–,–,–,–,–,–,58 nM,10 nM,–,–,–,–
C=CC(=O)N1CCN(c2ncc3ncnc(Nc4cc(Cl)c(Oc5ccc6c(c5)ncn6C)c(Cl)c4)c3n2)CC1 [Compound I-7],996 nM,25 nM,37 nM,118 nM,6 nM,1110 nM,30 nM,> 5000 nM,–,–,–,–,–,–
"C=CC(=O)Nc1cccc(-n2c(=O)c(Oc3ccc(F)cc3F)cc3cnc(Nc4cnn(C)c4)nc32)c1 [WO 2019/046775 Comp.2, reference compound]",–,–,–,–,–,–,–,–,22 nM,3 nM,14 nM,34 nM,13 nM,16 nM
C=CC(=O)N1CCN(c2ncc3ncnc(Nc4ccc(Oc5ccc6c(c5)ncn6C)c(OC)c4)c3n2)CC1 [Compound I-3],1170 nM,18 nM,12 nM,74 nM,1 nM,2800 nM,17 nM,> 5000 nM,–,–,–,–,–,–
C=CC(=O)N1CCN(c2ncc3ncnc(Nc4cc(F)c(Oc5ccc6c(c5)ncn6C)c(F)c4)c3n2)CC1 [Compound I-11],1170 nM,47 nM,40 nM,339 nM,3 nM,644 nM,25 nM,> 5000 nM,–,–,–,–,–,–
C=CC(=O)N1CCN(c2ncc3ncnc(Nc4cc(Br)c(Oc5ccc6c(c5)ncn6C)cc4Cl)c3n2)CC1 [Compound I-10],1770 nM,52 nM,64 nM,216 nM,8 nM,1630 nM,80 nM,> 5000 nM,–,–,–,–,–,–
"C=CC(=O)Nc1ccc2ncnc(Nc3ccc(Oc4ccc5c(c4)ncn5C)c(C)c3)c2c1 [WO 2007/059257 Ex.185, reference compound]",–,–,–,–,–,–,–,–,–,–,60 nM,–,–,> 5000 nM
"C=CC(=O)N1CCC[C@@H](n2nc(-c3ccc(Oc4ccccc4)cc3)c3c(N)ncnc32)C1 [ibrutinib, reference compound]",–,–,–,–,–,–,–,–,16 nM,–,44 nM,–,70 nM,–
C#Cc1cc(Nc2ncnc3cnc(N4CCN(C(=O)C=C)CC4)nc23)ccc1Oc1ccc2c(c1)ncn2C [Compound I-2],380 nM,9 nM,9 nM,50 nM,1 nM,1380 nM,10 nM,4660 nM,–,–,–,–,–,–
"CCOc1cc2ncc(C#N)c(Nc3ccc(OCc4ccccn4)c(Cl)c3)c2cc1NC(=O)/C=C/CN(C)C [neratinib, reference compound]",–,–,–,–,–,–,–,–,3 nM,–,5 nM,37 nM,14 nM,55 nM
C=CC(=O)N1CCN(c2ncc3ncnc(Nc4ccc(Oc5ccc6c(c5)ncn6C)c(Cl)c4)c3n2)CC1 [Compound I-4],221 nM,11 nM,17 nM,81 nM,2 nM,904 nM,10 nM,> 5000 nM,–,–,–,–,–,–
C=CC(=O)N1CCN(c2ncc3ncnc(Nc4ccc(Oc5ccc6c(c5)ncn6C)c(C)c4)c3n2)CC1 [Compound I-1],265 nM,16 nM,18 nM,82 nM,1 nM,2400 nM,10 nM,> 5000 nM,–,–,–,–,–,–
"C=CC(=O)N1CCC(Oc2cc3c(Nc4ccc(Cl)c(Cl)c4F)ncnc3cc2OC)CC1 [poziotinib, reference compound]",–,–,–,–,–,–,–,–,1 nM,1 nM,2 nM,5 nM,1 nM,1 nM
"C=CC(=O)Nc1ccc2ncnc(Nc3ccc(OCc4cccc(F)c4)c(Cl)c3)c2c1 [allitinib, reference compound]",–,–,–,–,–,–,–,–,36 nM,–,17 nM,–,31 nM,–
C=CC(=O)N1CCN(c2ncc3ncnc(Nc4ccc(Oc5ccc6c(c5)ncn6C)c(Br)c4)c3n2)CC1 [Compound I-5],232 nM,16 nM,20 nM,76 nM,1 nM,572 nM,15 nM,2880 nM,–,–,–,–,–,–
